# Results from patent US11459327B1, “Cycloalkyl and hetero-cycloalkyl inhibitors, preparation methods therefor, and use thereof” (Suzhou Zelgen Biopharmaceuticals Co., Ltd., priority 2019, dated 2022).
# pIC50: −log10 of the molar value.
# Tested on: NCI-H358(KRAS^G12C mutation) cells
# Test: Cell assay of antiproliferative activity (Celltiter-Glo, 5 days) against NCI-H358 cells
# Assay type: cell-based
# Details: 5 days incubation
# Experimental: Cell assay of antiproliferative activity of compounds against NCI-H358(KRAS^G12C mutation) and A549(KRAS^G12S mutation) cells.
# 40 μl phosphate buffer was added to the outer wells of the 384 microplate, and 40 μl cell suspension to be tested was added to the other wells. Then the microplate was incubated in a carbon dioxide incubator overnight.
# The compounds to be tested were gradiently diluted, each compound was performed 10 concentration gradients (diluted from 50 μM to 0.003 μM) and added 100 nL to the corresponding wells in the microplate. After addition, 40 μl of phosphate buffer was added to each well in rows A and P and columns 1 and 24, and then the microplate was incubated in a carbon dioxide incubator for 5 days.
# 20 μL of Promega Celltiter-Glo reagent was added to each well of the microplate, and then the luminescence signal was stabilized by oscillating at room temperature for 10 min. Then PekinElmer Envision multi-label analyzer was used to read.
# Finally, GraphPad Prism software was used to calculate the IC50 value of the compound and the fitting curve was drawn.
# Anti-proliferative activity of the compounds of the present invention against NCI-H358(KRAS^G12C mutation) and A549(KRAS^G12S mutation) cells were shown in Table 1.
row,SMILES,pIC50
1,"C=CC(=O)N1CCN(c2nc(OCCN(C)C3(C)CCC3)nc3c2CCN(c2cccc4cccc(Cl)c24)C3)CC1CC#N (stereo not drawn) [Example 23, 2-(1-acroloyl-4-(7-(8-chloronaphthalen-1-yl)-2-(2-(methyl(1-methylcyclobutyl)amino)ethoxy)-5,6,7,8-tetrahydropyrido[3,4-d]pyrimidin-4-yl)piperazin-2-yl) acetonitrile]",7.89
2,"C=CC(=O)N1CCN(c2nc(OCC3(CNC)CC3)nc3c2CCN(c2cccc4cccc(Cl)c24)C3)CC1CC#N (stereo not drawn) [Example 26, 2-(1-acroloyl-4-(7-(8-chloronaphthalen-1-yl)-2-((1-((methylamino)methyl)cyclopropyl)methoxy)-5,6,7,8-tetrahydropyrido[3,4-d]pyrimidin-4-yl)piperazin-2-yl) acetonitrile]",7.21
3,"C=CC(=O)N1CCN(c2nc(OCC3(CN(C)C)CC3)nc3c2CC(C)N(c2cccc4cccc(Cl)c24)C3)CC1CC#N (single isomer, unassigned) [Example 29C, 2-(1-acroloyl-4-(7-(8-chloronaphthalen-1-yl)-2-((1-((dimethylamino)methyl)cyclopropyl)methoxyl)-6-methyl-5,6,7,8-tetrahydropyrido [3,4-d]pyrimidin-4-yl)piperazin-2-yl) acetonitrile]",7.00
4,"C=CC(=O)N1CCN(c2nc(OC[C@H](C)N(C)C3CCC3)nc3c2CCN(c2cccc4cccc(C)c24)C3)C[C@H]1CC#N [Example 91B, 2-((R)-1-acroloyl-4-(2-((S)-2-(cyclobutyl(methyl)amino)propoxy)-7-(8-methylnaphthalen-1-yl)-5,6,7,8-tetrahydropyrido[3,4-d]pyrimidin-4-yl)piperazin-2-yl) acetonitrile]",> 6.00
5,"C=CC(=O)N1CCN(c2nc(OCC3(CN(C)C)CC3)nc3c2CC(C)N(c2cccc4cccc(Cl)c24)C3)CC1CC#N (single isomer, unassigned) [Example 29A, 2-(1-acroloyl-4-(7-(8-chloronaphthalen-1-yl)-2-((1-((dimethylamino)methyl)cyclopropyl)methoxyl)-6-methyl-5,6,7,8-tetrahydropyrido [3,4-d]pyrimidin-4-yl)piperazin-2-yl) acetonitrile]",6.44

# Same assay, conditions: Homo sapiens, NCI-H358, 120 h, 5 days incubation
row,SMILES,pIC50
1,"C=C(F)C(=O)N1CCN(c2nc(OCC3(CCN(C)C)CC3)nc3c2CCN(c2cccc4cccc(Cl)c24)C3)C[C@@H]1CC#N [Example 52, (S)-2-(4-(7-(8-chloronaphthalen-1-yl)-2-((1-(2-(dimethylamino)ethyl)cyclopropyl)methoxy)-5,6,7,8-tetrahydropyrido[3,4-d]pyrimidin-4-yl)-1-(2-fluoroacroloyl)piperazin-2-yl) acetonitrile]",6.27
2,C=C(F)C(=O)N1CCN(c2nc(OCC3(CN4CC(F)(F)C4)CC3)nc3c2CCN(c2cccc4ccc(F)c(Cl)c24)C3)C[C@@H]1CC#N [Example 59],6.09
3,"C=C(F)C(=O)N1CCN(c2nc(OCC3(CN(C)C)COC3)nc3c2CCN(c2cccc4cccc(Cl)c24)C3)CC1CC#N (stereo not drawn) [Example 25, 2-(4-(7-(8-chloronaphthalen-1-yl)-2-((3-((dimethylamino)methyl)oxetan-3-yl)methoxy)-5,6,7,8-tetrahydropyrido[3,4-d]pyrimidin-4-yl)-1-(2-fluoroacroloyl)piperazin-2-yl) acetonitrile]",7.23
4,C=CC(=O)N1CCN(c2nc(OCCN(C)C3CC(F)(F)C3)nc3c2CCN(c2cccc4cccc(C)c24)C3)CC1CC#N (stereo not drawn) [Example 85],> 7.00
5,C=C(F)C(=O)N1CCN(c2nc(OCC3(CN4CCC4)CC3)nc3c2CCN(c2cccc4cccc(Cl)c24)C3)C[C@@H]1CC#N [Example 48],7.19
6,"C=CC(=O)N1CCN(c2nc(OCCN(C)C3(COC)CCC3)nc3c2CCN(c2cccc4cccc(Cl)c24)C3)CC1CC#N (stereo not drawn) [Example 31, 2-(acroloyl-4-(7-(8-chloronaphthalen-1-yl)-2-(2-((1-(methoxymethyl)cyclobutyl)(methyl)amino)ethoxy)-5,6,7,8-tetrahydropyrido[3,4-d]pyrimidin-4-yl)piperazin-2-yl) acetonitrile]",7.14
7,"C=C(F)C(=O)N1CCN(c2nc(OCC3(CN4CC(C)C4)CC3)nc3c2CCN(c2cccc4ccc(F)c(Cl)c24)C3)C[C@@H]1CC#N [Example 67, (S)-2-(4-(7-(8-chloro-7-fluoronaphthalen-1-yl)-2-((1-((3-methylazetidin-1-yl)methyl)cyclopropyl)methoxy)-5,6,7,8-tetrahydropyrido[3,4-d]pyrimidin-4-yl)-1-(2-fluoroacroloyl)piperazin-2-yl) acetonitrile]",7.29
8,[2H]C([2H])([2H])N(CC1(COc2nc3c(c(N4CCN(C(=O)C(=C)F)[C@@H](CC#N)C4)n2)CCN(c2cccc4ccc(F)c(Cl)c24)C3)CC1)C([2H])([2H])[2H] [Example 63],8.15
9,C=C(F)C(=O)N1CCN(c2nc(OCC3(CN(C)CCOC)CC3)nc3c2CCN(c2cccc4cccc(Cl)c24)C3)C[C@@H]1CC#N [Example 69],7.23
10,"C=CC(=O)N1CCN(c2nc(OCC3(CN(C)C)CC3)nc3c2CCN(c2cccc4cccc(Cl)c24)C3)CC1C(F)(F)F (stereo not drawn) [Example 41, 1-(-4-(7-(8-chloronaphthalen-1-yl)-2-((1-((dimethylamino)methyl)cyclopropyl)methoxyl)-5,6,7,8-tetrahydropyrido[3,4-d]pyrimidin-4-yl)-2-(trifluoromethyl)piperazin-1-yl)prop-2-ene-1-one]",5.85
11,"C=CC(=O)N1CCN(c2nc(OC[C@@H](C)N(C)C3CCC3)nc3c2CCN(c2cccc4cccc(C)c24)C3)CC1CC#N (stereo partly drawn) [Example 92, 2-(1-acroloyl-4-(2-((R)-2-(cyclobutyl(methyl)amino)propoxy)-7-(8-methylnaphthalen-1-yl)-5,6,7,8-tetrahydropyrido[3,4-d]pyrimidin-4-yl)piperazin-2-yl) acetonitrile]",> 7.00
12,"C=C(F)C(=O)N1CCN(c2nc(OCC3(CN4CC(F)C4)CC3)nc3c2CCN(c2cccc4ccc(F)c(Cl)c24)C3)C[C@@H]1CC#N [Example 65, (S)-2-(4-(7-(8-chloro-7-fluoronaphthalen-1-yl)-2-((1-((3-fluoroazetidin-1-yl)methyl)cyclopropyl)methoxy)-5,6,7,8-tetrahydropyrido[3,4-d]pyrimidin-4-yl)-1-(2-fluoroacroloyl)piperazin-2-yl) acetonitrile]",7.35
13,C=C(F)C(=O)N1CCN(c2nc(OCCN(C)C34CC(C3)C4)nc3c2CCN(c2cccc4cccc(Cl)c24)C3)C[C@@H]1CC#N [Example 55],6.06
14,C=C(F)C(=O)N1CCN(c2nc(OCC3(CN(C)C)CC3)nc3c2CCN(c2cccc4ccc(F)c(Cl)c24)C3)C[C@@H]1CC#N [Example 28],8.10
15,"C=CC(=O)N1C[C@@H](C)N(c2nc(OCC3(CN(C)C)CC3)nc3c2CCN(c2cccc4cccc(Cl)c24)C3)C[C@@H]1C [Example 34, 1-((2S,5R)-4-(7-(8-chloronaphthalen-1-yl)-2-((1-((dimethylamino)methyl)cyclopropyl)methoxyl)-5,6,7,8-tetrahydropyrido[3,4-d]pyrimidin-4-yl)-2,5-dimethylpiperazin-1-yl)prop-2-ene-1-one]",5.72
16,"C=CC(=O)N1CC2CC1CN2c1nc(OCC2(CN(C)C)CC2)nc2c1CCN(c1cccc3cccc(Cl)c13)C2 (stereo not drawn) [Example 42, 1-(5-(7-(8-chloronaphthalen-1-yl)-2-((1-((dimethylamino)methyl)cyclopropyl)methoxyl)-5,6,7,8-tetrahydropyrido[3,4-d]pyrimidin-4-yl)-2,5-diazabicyclo[2.2.1]heptane-2-yl)prop-2-ene-1-one]",5.26
